Test results as given in US20260176319A1, “PEPTIDE ANALOGS AND METHODS OF USING THE SAME” (Kallyope, Inc., priority 2024, published 2026).
Starred links: 1 amine or outer side, 2 acyl side, 3 side chain; linkers in the order of their positions; H or OH if unused. Non-standard residues stand in square brackets, D forms with d. Residues, ends and D or L forms follow the SMILES beside them. *: point of attachment. Me3N+(CH2)2O(CH2)2O(CH2)2CO = C[N+](C)(C)CCOCCOCCC(=O)*; Trp(7-Me) = Cc1cccc2c(C[C@H](N)C(=O)O)c[nH]c12; C20 diacid = O=C(O)CCCCCCCCCCCCCCCCCCC(=O)*; d(γGlu) = O=C(O)[C@@H](CCC(=O)[*:2])N[*:1]; C18 diacid = O=C(O)CCCCCCCCCCCCCCCCC(=O)*; γGlu = O=C(O)[C@H](CCC(=O)[*:2])N[*:1]; 2Nal = N[C@@H](Cc1ccc2ccccc2c1)C(=O)O; 3Pal = N[C@@H](Cc1cccnc1)C(=O)O; X1 = O=C(CC1(N[*:1])CCC1)[*:2]; X2 = O=C(CC1(N[*:1])CC1)[*:2]; Nle = CCCC[C@H](N)C(=O)O; β3hA = C[C@H](N)CC(=O)O; Dap = NC[C@H](N)C(=O)O; AEEA = NCCOCCOCC(=O)O; βAla = NCCC(=O)O; Sar = CNCC(=O)O

Molecular target: T1, human GRP receptors (Homo sapiens, UniProt P30550)
T1 construct: host or cells: U2OS
T1 sequence (P30550 whole entry): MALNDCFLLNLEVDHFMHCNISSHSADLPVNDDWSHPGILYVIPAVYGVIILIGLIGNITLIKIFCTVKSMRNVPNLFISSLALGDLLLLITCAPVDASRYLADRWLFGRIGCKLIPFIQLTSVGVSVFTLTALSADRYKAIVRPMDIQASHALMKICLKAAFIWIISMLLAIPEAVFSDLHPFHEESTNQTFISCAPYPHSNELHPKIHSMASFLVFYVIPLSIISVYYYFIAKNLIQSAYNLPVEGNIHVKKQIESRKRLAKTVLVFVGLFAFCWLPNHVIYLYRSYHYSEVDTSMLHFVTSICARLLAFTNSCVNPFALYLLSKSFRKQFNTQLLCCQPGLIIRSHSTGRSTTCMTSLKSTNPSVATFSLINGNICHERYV
Assay: IP1 GRPR activity: HTRF IP1-Gq assay in U2OS cells stably expressing human GRP receptors
Format: cell-based
Conditions: 90 minutes incubation, read-out: hIP1 GRPR EC50
Experimental: U2OS cells stably expressing human GRP receptors (DiscoverX, #93-0229C3) were cultured according to manufacturer's instructions. Cells were cultured to […], then collected using AccuTase (Innovative Cell Technologies, #AT104). Cells were washed and plated on a poly-D-lysine-coated 384-well plate (ThermoFisher, #A3890401) at a density of 2,500 cells/well in […] assay buffer (AssayComplete Cell Plating 5 Reagent, DiscoverX #93-0563R5), then incubated overnight at 37° C. and 5% C02. The following morning, a homogenous time-resolved fluorescence (HTRF) assay was performed in a 384-well plate format using the IP1-Gq assay kit (Cisbio, 62IPAPEB). Test compounds were made as a stock in DMSO, then serially diluted to generate 10-point dose response curves in IP1 stimulation buffer. Five microliters of the prepared compounds were then added to the plate containing cells and assay buffer in duplicate, and the cells were incubated at 37° C. and 5% CO2 for 90 minutes. Following compound incubation, […] of IP1 lysis/detection buffer (prepared according to manufacturer's instructions) was added to each well, and the plates were incubated at room temperature for 1 hour. HTRF signals were measured using a plate reader (ClarioSTAR), calculating the ratio between emissions at 665 nm and 620 nm (HTRF ratio). HTRF ratio for positive (Max, […]; SEQ ID NO. 45) and negative (Min, DMSO) controls were used to normalize HTRF data and generate values for % activity. EC50 and Max activity values were determined using a standard 4-parameter fit using GraphPad Prism.

| EC50 [nM] | Compound |
| --- | --- |
| > 10000 | CCCC[C@H](NC(=O)[C@H](CC(C)C)NC(=O)[C@H](Cc1c[nH]cn1)NC(=O)[C@@H](C)NC(=O)[C@@H](NC(=O)[C@H](C)NC(=O)[C@H](CCCNC(=N)N)NC(=O)[C@H](Cc1c[nH]cn1)NC(=O)[C@H](CC(N)=O)NC(=O)CNC(=O)COCCOCCNC(=O)COCCOCCNC(=O)CC[C@H](NC(=O)CCCCCCCCCCCCCCCCC(=O)O)C(=O)O)C(C)C)C(N)=O [Peptide 108, Octadecanedioyl-γGlu-OEG-OEG-Gly-Asn-His-Arg-Ala-Val-D-Ala-His-Leu-Nle-NH2] ({C18 diacid-γGlu-AEEA-AEEA}-GNHRAV[dA]HL[Nle]-NH2) |
| > 10000 | CCCC[C@H](NC(=O)[C@H](CC(C)C)NC(=O)[C@H](Cc1c[nH]cn1)NC(=O)[C@@H](C)NC(=O)[C@@H](NC(=O)[C@H](C)NC(=O)[C@H](Cc1c[nH]cn1)NC(=O)[C@H](Cc1c[nH]cn1)NC(=O)[C@H](CCCNC(=N)N)NC(=O)CNC(=O)COCCOCCNC(=O)COCCOCCNC(=O)CC[C@H](NC(=O)CCCCCCCCCCCCCCCCC(=O)O)C(=O)O)C(C)C)C(N)=O [Peptide 116, Octadecanedioyl-γGlu-OEG-OEG-Gly-Arg-His-His-Ala-Val-D-Ala-His-Leu-Nle-NH2] ({C18 diacid-γGlu-AEEA-AEEA}-GRHHAV[dA]HL[Nle]-NH2) |
| 6 | CCCC[C@H](NC(=O)[C@H](CC(C)C)NC(=O)[C@H](Cc1c[nH]cn1)NC(=O)C[C@H](C)NC(=O)[C@@H](NC(=O)[C@H](C)NC(=O)[C@H](Cc1c[nH]c2c(C)cccc12)NC(=O)[C@H](Cc1c[nH]cn1)NC(=O)[C@H](CC(N)=O)NC(=O)CNC(=O)COCCOCCNC(=O)COCCOCCNC(=O)CC[C@H](NC(=O)CC[C@H](NC(=O)CCCCCCCCCCCCCCCCCCC(=O)O)C(=O)O)C(=O)O)C(C)C)C(N)=O [Peptide 258, Eicosanedioyl-γGlu-γGlu-OEG-OEG-Gly-Asn-His-7MeTrp-Ala-Val-BABA-His-Leu-Nle-NH2] ({C20 diacid-γGlu-γGlu-AEEA-AEEA}-GNH[Trp(7-Me)]AV[β3hA]HL[Nle]-NH2) |
| 12.3 | CCCC[C@H](NC(=O)[C@H](CC(C)C)NC(=O)[C@H](Cc1c[nH]cn1)NC(=O)CC1(NC(=O)[C@@H](NC(=O)[C@H](C)NC(=O)[C@H](Cc2c[nH]c3ccccc23)NC(=O)[C@H](Cc2c[nH]cn2)NC(=O)[C@H](CCC(N)=O)NC(=O)CNC(=O)COCCOCCNC(=O)COCCOCCNC(=O)CC[C@H](NC(=O)CC[C@H](NC(=O)CCCCCCCCCCCCCCCCCCC(=O)O)C(=O)O)C(=O)O)C(C)C)CCC1)C(N)=O [Peptide 273, Eicosanedioyl-γGlu-Glu-OEG-OEG-Gly-Gln-His-Trp-Ala-Val-ACBA-His-Leu-Nle-NH2] ({C20 diacid-γGlu-γGlu-AEEA-AEEA}-GQHWAV[X1]HL[Nle]-NH2) |
| > 10000 | CCCC[C@H](NC(=O)[C@H](CC(C)C)NC(=O)[C@H](Cc1c[nH]cn1)NC(=O)[C@@H](C)NC(=O)[C@@H](NC(=O)[C@H](C)NC(=O)[C@H](Cc1c[nH]c2ccccc12)NC(=O)[C@H](Cc1c[nH]cn1)NC(=O)[C@H](CC(N)=O)NC(=O)CNC(=O)COCCOCCNC(=O)COCCOCCNC(=O)CC[C@H](NC(=O)CCCCCCCCCCCCCCCCC(=O)O)C(=O)O)C(C)C)C(=O)N[C@@H](CCCNC(=N)N)C(N)=O [Peptide 114, Octadecanedioyl-γGlu-OEG-OEG-Gly-Asn-His-Trp-Ala-Val-D-Ala-His-Leu-Nle-Arg-NH2] ({C18 diacid-γGlu-AEEA-AEEA}-GNHWAV[dA]HL[Nle]R-NH2) |
| > 10000 | CCCC[C@H](NC(=O)[C@H](CC(C)C)NC(=O)[C@H](Cc1c[nH]cn1)NC(=O)[C@@H](C)NC(=O)[C@@H](NC(=O)[C@H](C)NC(=O)[C@H](CCCNC(=N)N)NC(=O)[C@H](Cc1c[nH]cn1)NC(=O)[C@H](CC(N)=O)NC(=O)CNC(=O)COCCOCCNC(=O)COCCOCCNC(=O)CC[C@H](NC(=O)CCCCCCCCCCCCCCCCC(=O)O)C(=O)O)C(C)C)C(=O)N(C)CC(N)=O [Peptide 130, Octadecanedioyl-γGlu-OEG-OEG-Gly-Asn-His-Arg-Ala-Val-D-Ala-His-Leu-Nle-Sar-NH2] ({C18 diacid-γGlu-AEEA-AEEA}-GNHRAV[dA]HL[Nle][Sar]-NH2) |
| 6 | CCCC[C@H](NC(=O)[C@H](CC(C)C)NC(=O)[C@H](Cc1c[nH]cn1)NC(=O)CC1(NC(=O)[C@@H](NC(=O)[C@H](C)NC(=O)[C@H](Cc2c[nH]c3ccccc23)NC(=O)[C@H](Cc2c[nH]cn2)NC(=O)[C@H](CCC(N)=O)NC(=O)CNC(=O)COCCOCCNC(=O)COCCOCCNC(=O)CC[C@H](NC(=O)CC[C@H](NC(=O)CCCCCCCCCCCCCCCCCCC(=O)O)C(=O)O)C(=O)O)C(C)C)CC1)C(N)=O [Peptide 272, Eicosanedioyl-γGlu-γGlu-OEG-OEG-Gly-Gln-His-Trp-Ala-Val-ACPA-His-Leu-Nle-NH2] ({C20 diacid-γGlu-γGlu-AEEA-AEEA}-GQHWAV[X2]HL[Nle]-NH2) |
| 1050 | CCCC[C@H](NC(=O)[C@H](CC(C)C)NC(=O)[C@H](Cc1c[nH]cn1)NC(=O)[C@@H](C)NC(=O)[C@@H](NC(=O)[C@H](C)NC(=O)[C@H](Cc1c[nH]c2ccccc12)NC(=O)[C@H](Cc1cccnc1)NC(=O)[C@H](CC(N)=O)NC(=O)CNC(=O)COCCOCCNC(=O)COCCOCCNC(=O)CC[C@@H](NC(=O)CCCCCCCCCCCCCCCCC(=O)O)C(=O)O)C(C)C)C(=O)N(C)CC(N)=O [Peptide 72, Octadecanedioyl-D-γGlu-OEG-OEG-Gly-Asn-3Pal-Trp-Ala-Val-D-Ala-His-Leu-Nle-Sar-NH2] ({C18 diacid-d(γGlu)-AEEA-AEEA}-GN[3Pal]WAV[dA]HL[Nle][Sar]-NH2) |
| > 10000 | CCCC[C@H](NC(=O)[C@H](CC(C)C)NC(=O)[C@H](Cc1c[nH]cn1)NC(=O)[C@@H](C)NC(=O)[C@@H](NC(=O)[C@@H](C)NC(=O)[C@H](Cc1c[nH]c2ccccc12)NC(=O)[C@H](Cc1c[nH]cn1)NC(=O)[C@H](CC(N)=O)NC(=O)CNC(=O)COCCOCCNC(=O)COCCOCCNC(=O)CC[C@H](NC(=O)CCCCCCCCCCCCCCCCC(=O)O)C(=O)O)C(C)C)C(=O)N(C)CC(N)=O [Peptide 115, Octadecanedioyl-γGlu-OEG-OEG-Gly-Asn-His-Trp-D-Ala-Val-D-Ala-His-Leu-Nle-Sar-NH2] ({C18 diacid-γGlu-AEEA-AEEA}-GNHW[dA]V[dA]HL[Nle][Sar]-NH2) |
| > 10000 | CCCC[C@H](NC(=O)[C@H](CC(C)C)NC(=O)[C@H](Cc1c[nH]cn1)NC(=O)[C@@H](C)NC(=O)[C@@H](NC(=O)[C@@H](C)NC(=O)[C@H](Cc1c[nH]c2ccccc12)NC(=O)[C@H](Cc1c[nH]cn1)NC(=O)[C@H](CC(=O)O)NC(=O)CNC(=O)COCCOCCNC(=O)COCCOCCNC(=O)CC[C@H](NC(=O)CCCCCCCCCCCCCCCCC(=O)O)C(=O)O)C(C)C)C(N)=O [Peptide 139, Octadecanedioyl-γGlu-OEG-OEG-Gly-Asp-His-Trp-D-Ala-Val-D-Ala-His-Leu-Nle-NH2] ({C18 diacid-γGlu-AEEA-AEEA}-GDHW[dA]V[dA]HL[Nle]-NH2) |
| > 10000 | CCCC[C@H](NC(=O)[C@H](CC(C)C)NC(=O)[C@H](Cc1c[nH]cn1)NC(=O)[C@@H](C)NC(=O)[C@@H](NC(=O)[C@H](C)NC(=O)[C@H](Cc1ccc2ccccc2c1)NC(=O)[C@H](Cc1c[nH]cn1)NC(=O)[C@H](CC(N)=O)NC(=O)CNC(=O)COCCOCCNC(=O)COCCOCCNC(=O)CC[C@H](NC(=O)CCCCCCCCCCCCCCCCC(=O)O)C(=O)O)C(C)C)C(=O)N(C)CC(N)=O [Peptide 99, Octadecanedioyl-γGlu-OEG-OEG-Gly-Asn-His-2Nal-Ala-Val-D-Ala-His-Leu-Nle-Sar-NH2] ({C18 diacid-γGlu-AEEA-AEEA}-GNH[2Nal]AV[dA]HL[Nle][Sar]-NH2) |
| 4 | CCCC[C@H](NC(=O)[C@H](CC(C)C)NC(=O)[C@H](Cc1c[nH]cn1)NC(=O)CCNC(=O)[C@@H](NC(=O)[C@H](C)NC(=O)[C@H](Cc1c[nH]c2ccccc12)NC(=O)[C@H](Cc1c[nH]cn1)NC(=O)[C@H](CNC(=O)CCOCCOCC[N+](C)(C)C)NC(=O)CNC(=O)COCCOCCNC(=O)COCCOCCNC(=O)CC[C@H](NC(=O)CCCCCCCCCCCCCCCCCCC(=O)O)C(=O)O)C(C)C)C(N)=O [Peptide 262, Eicosanedioyl-γGlu-OEG-OEG-Gly-Dap(2CE-PEG-TMEA)-His-Trp-Ala-Val-β-Ala-His-Leu-Nle-NH2] ({C20 diacid-γGlu-AEEA-AEEA}-G[Dap](Me3N+(CH2)2O(CH2)2O(CH2)2CO)HWAV[βAla]HL[Nle]-NH2) |
| 358 | CCCC[C@H](NC(=O)[C@H](CC(C)C)NC(=O)[C@H](Cc1c[nH]cn1)NC(=O)[C@@H](C)NC(=O)[C@@H](NC(=O)[C@H](C)NC(=O)[C@H](Cc1c[nH]c2ccccc12)NC(=O)[C@H](Cc1c[nH]cn1)NC(=O)[C@H](CC(N)=O)NC(=O)[C@H](CCCNC(=N)N)NC(=O)COCCOCCNC(=O)COCCOCCNC(=O)CC[C@H](NC(=O)CCCCCCCCCCCCCCCCC(=O)O)C(=O)O)C(C)C)C(=O)O [Peptide 156, Octadecanedioyl-γGlu-OEG-OEG-Arg-Asn-His-Trp-Ala-Val-D-Ala-His-Leu-Nle] ({C18 diacid-γGlu-AEEA-AEEA}-RNHWAV[dA]HL[Nle]-OH) |
